Experimental data taken from ChEMBL document CHEMBL4507269, “Data for DCP probe BAY-386” (2021).

Experiments:
[1] = molecular target: Mitogen-activated protein kinase 12 (Homo sapiens) (UniProt P53778); conditions: Compound concentration 1000.0 nM
[2] = system: Mast/stem cell growth factor receptor Kit (Homo sapiens), P10721 [V559D,T670I]; conditions: Compound concentration 1000.0 nM
[3] = molecular target: Cyclin-dependent kinase 16 (Homo sapiens) (UniProt Q00536); conditions: Compound concentration 1000.0 nM
[4] = molecular target: Serine/threonine-protein kinase PAK 4 (Homo sapiens) (UniProt O96013); conditions: Compound concentration 1000.0 nM
[5] = molecular target: Calcium/calmodulin-dependent protein kinase kinase 1 (Homo sapiens) (UniProt Q8N5S9); conditions: Compound concentration 1000.0 nM
[6] = molecular target: Rho-associated protein kinase 1 (Homo sapiens) (UniProt Q13464); conditions: Compound concentration 1000.0 nM
[7] = molecular target: SRSF protein kinase 2 (Homo sapiens) (UniProt P78362); conditions: Compound concentration 1000.0 nM
[8] = molecular target: Insulin receptor (Homo sapiens) (UniProt P06213); conditions: Compound concentration 1000.0 nM
[9] = molecular target: Receptor tyrosine-protein kinase erbB-3 (Homo sapiens) (UniProt P21860); conditions: Compound concentration 1000.0 nM
[10] = molecular target: Protein kinase C theta type (Homo sapiens) (UniProt Q04759); conditions: Compound concentration 1000.0 nM
[11] = molecular target: Serine/threonine-protein kinase 32B (Homo sapiens) (UniProt Q9NY57); conditions: Compound concentration 1000.0 nM
[12] = molecular target: Megakaryocyte-associated tyrosine-protein kinase (Homo sapiens) (UniProt P42679); conditions: Compound concentration 1000.0 nM
[13] = molecular target: 5-hydroxytryptamine receptor 6 (Homo sapiens) (UniProt P50406); conditions: Compound concentration 10.0 uM
[14] = molecular target: Serine/threonine-protein kinase WNK3 (Homo sapiens) (UniProt Q9BYP7); conditions: Compound concentration 1000.0 nM
[15] = molecular target: Ribosomal protein S6 kinase alpha-3 (Homo sapiens) (UniProt P51812); conditions: Compound concentration 1000.0 nM
[16] = system: Tyrosine-protein kinase ABL1 (Homo sapiens), P00519 [Y253F]; conditions: Compound concentration 1000.0 nM
[17] = molecular target: Histamine H1 receptor (Homo sapiens) (UniProt P35367); conditions: Compound concentration 10.0 uM
[18] = molecular target: Membrane-associated tyrosine- and threonine-specific cdc2-inhibitory kinase (Homo sapiens) (UniProt Q99640); conditions: Compound concentration 1000.0 nM
[19] = molecular target: T1, GABA-A receptor; anion channel (Rattus norvegicus) (UniProt O09028+P15431+P18506+P18508+P19969+P20236+P23574+P23576+P28471+P28473+P30191+P62813+P63079+P63138+Q91ZM7+Q9ES14); conditions: Compound concentration 10.0 uM
[20] = molecular target: NT-3 growth factor receptor (Homo sapiens) (UniProt Q16288); conditions: Compound concentration 1000.0 nM
[21] = molecular target: cGMP-dependent protein kinase 2 (Homo sapiens) (UniProt Q13237); conditions: Compound concentration 1000.0 nM
[22] = molecular target: Dual specificity mitogen-activated protein kinase kinase 4 (Homo sapiens) (UniProt P45985); conditions: Compound concentration 1000.0 nM
[23] = system: Epidermal growth factor receptor (Homo sapiens), P00533 [G719S]; conditions: Compound concentration 1000.0 nM
[24] = molecular target: Aurora kinase B (Homo sapiens) (UniProt Q96GD4); conditions: Compound concentration 1000.0 nM
[25] = molecular target: Myosin light chain kinase, smooth muscle (Homo sapiens) (UniProt Q15746); conditions: Compound concentration 1000.0 nM
[26] = molecular target: STE20/SPS1-related proline-alanine-rich protein kinase (Homo sapiens) (UniProt Q9UEW8); conditions: Compound concentration 1000.0 nM
[27] = molecular target: Ribosomal protein S6 kinase alpha-6 (Homo sapiens) (UniProt Q9UK32); conditions: Compound concentration 1000.0 nM
[28] = molecular target: Serine/threonine-protein kinase D1 (Homo sapiens) (UniProt Q15139); conditions: Compound concentration 1000.0 nM
[29] = molecular target: Phosphatidylinositol 3-kinase catalytic subunit type 3 (Homo sapiens) (UniProt Q8NEB9); conditions: Compound concentration 1000.0 nM
[30] = molecular target: Serine/threonine-protein kinase 17A (Homo sapiens) (UniProt Q9UEE5); conditions: Compound concentration 1000.0 nM
[31] = molecular target: Serine/threonine-protein kinase TAO3 (Homo sapiens) (UniProt Q9H2K8); conditions: Compound concentration 1000.0 nM
[32] = system: Epidermal growth factor receptor (Homo sapiens), P00533 [UNDEFINED MUTATION]; conditions: Compound concentration 1000.0 nM
[33] = molecular target: Serine/threonine-protein kinase WNK2 (Homo sapiens) (UniProt Q9Y3S1); conditions: Compound concentration 1000.0 nM
[34] = molecular target: T1, GABA-A receptor; anion channel (Rattus norvegicus); conditions: Compound concentration 10.0 uM; remark: listed apart in the source
[35] = molecular target: G protein-coupled receptor kinase 3 (Homo sapiens) (UniProt P35626); conditions: Compound concentration 1000.0 nM
[36] = molecular target: Serine/threonine-protein kinase ULK3 (Homo sapiens) (UniProt Q6PHR2); conditions: Compound concentration 1000.0 nM
[37] = molecular target: Serine/threonine-protein kinase mTOR (Homo sapiens) (UniProt P42345); conditions: Compound concentration 1000.0 nM
[38] = molecular target: Serine/threonine-protein kinase Sgk1 (Homo sapiens) (UniProt O00141); conditions: Compound concentration 1000.0 nM
[39] = molecular target: P2Y purinoceptor 2 (Homo sapiens) (UniProt P41231); assay: P2Y2 (h) Eurofins-Cerep Cellular and Nuclear Receptor Functional Assays; conditions: Compound concentration 10.0 uM
P2Y purinoceptor 2 (Homo sapiens), sequence (P41231 whole entry): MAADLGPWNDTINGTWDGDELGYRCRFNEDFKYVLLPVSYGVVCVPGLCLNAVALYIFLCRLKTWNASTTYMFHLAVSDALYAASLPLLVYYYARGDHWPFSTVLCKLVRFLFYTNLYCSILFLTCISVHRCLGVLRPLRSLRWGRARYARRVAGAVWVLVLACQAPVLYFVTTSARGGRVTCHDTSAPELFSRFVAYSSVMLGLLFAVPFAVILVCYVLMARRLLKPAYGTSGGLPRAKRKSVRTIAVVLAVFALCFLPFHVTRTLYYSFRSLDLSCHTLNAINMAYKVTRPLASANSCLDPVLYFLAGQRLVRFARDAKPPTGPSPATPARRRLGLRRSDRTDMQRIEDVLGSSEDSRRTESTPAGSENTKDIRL

Insulin receptor (Homo sapiens), sequence (P06213 28-758 limits assumed): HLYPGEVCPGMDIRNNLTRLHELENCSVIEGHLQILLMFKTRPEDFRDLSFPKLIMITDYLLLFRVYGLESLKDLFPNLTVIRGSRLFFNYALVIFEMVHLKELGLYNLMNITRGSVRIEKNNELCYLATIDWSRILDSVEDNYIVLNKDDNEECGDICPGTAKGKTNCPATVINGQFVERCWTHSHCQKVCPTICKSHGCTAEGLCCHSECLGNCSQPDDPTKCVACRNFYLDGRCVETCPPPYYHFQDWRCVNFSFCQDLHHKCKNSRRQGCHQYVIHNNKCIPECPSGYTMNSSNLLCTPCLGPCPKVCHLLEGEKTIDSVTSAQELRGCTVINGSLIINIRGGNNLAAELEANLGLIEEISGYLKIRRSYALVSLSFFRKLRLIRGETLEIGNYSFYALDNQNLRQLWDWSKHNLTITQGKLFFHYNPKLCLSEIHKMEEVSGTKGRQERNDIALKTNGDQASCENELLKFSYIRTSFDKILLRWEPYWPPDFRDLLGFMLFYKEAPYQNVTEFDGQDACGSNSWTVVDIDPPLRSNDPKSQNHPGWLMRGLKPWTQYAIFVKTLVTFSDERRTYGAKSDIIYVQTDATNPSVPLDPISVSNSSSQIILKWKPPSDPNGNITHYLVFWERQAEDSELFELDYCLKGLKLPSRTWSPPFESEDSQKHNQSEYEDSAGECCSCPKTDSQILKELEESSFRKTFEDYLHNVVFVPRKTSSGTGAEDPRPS
Insulin receptor (Homo sapiens), sequence (P06213 763-1382 limits assumed): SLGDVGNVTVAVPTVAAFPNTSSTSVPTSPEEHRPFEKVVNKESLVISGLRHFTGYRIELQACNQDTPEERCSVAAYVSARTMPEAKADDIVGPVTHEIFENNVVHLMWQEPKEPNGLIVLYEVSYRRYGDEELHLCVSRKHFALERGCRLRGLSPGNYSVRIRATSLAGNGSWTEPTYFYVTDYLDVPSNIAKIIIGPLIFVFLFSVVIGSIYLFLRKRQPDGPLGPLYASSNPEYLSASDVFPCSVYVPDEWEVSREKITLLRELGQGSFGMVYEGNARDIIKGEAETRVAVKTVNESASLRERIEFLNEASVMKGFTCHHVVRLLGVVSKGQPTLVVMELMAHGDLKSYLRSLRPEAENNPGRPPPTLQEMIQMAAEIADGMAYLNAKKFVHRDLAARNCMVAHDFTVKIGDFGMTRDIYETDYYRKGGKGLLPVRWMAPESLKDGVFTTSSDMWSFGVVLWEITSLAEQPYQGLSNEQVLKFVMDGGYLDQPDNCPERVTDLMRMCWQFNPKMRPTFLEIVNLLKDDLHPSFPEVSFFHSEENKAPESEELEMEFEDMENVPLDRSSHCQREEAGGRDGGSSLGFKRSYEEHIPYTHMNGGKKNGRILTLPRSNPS
Receptor tyrosine-protein kinase erbB-3 (Homo sapiens), sequence (P21860 whole entry): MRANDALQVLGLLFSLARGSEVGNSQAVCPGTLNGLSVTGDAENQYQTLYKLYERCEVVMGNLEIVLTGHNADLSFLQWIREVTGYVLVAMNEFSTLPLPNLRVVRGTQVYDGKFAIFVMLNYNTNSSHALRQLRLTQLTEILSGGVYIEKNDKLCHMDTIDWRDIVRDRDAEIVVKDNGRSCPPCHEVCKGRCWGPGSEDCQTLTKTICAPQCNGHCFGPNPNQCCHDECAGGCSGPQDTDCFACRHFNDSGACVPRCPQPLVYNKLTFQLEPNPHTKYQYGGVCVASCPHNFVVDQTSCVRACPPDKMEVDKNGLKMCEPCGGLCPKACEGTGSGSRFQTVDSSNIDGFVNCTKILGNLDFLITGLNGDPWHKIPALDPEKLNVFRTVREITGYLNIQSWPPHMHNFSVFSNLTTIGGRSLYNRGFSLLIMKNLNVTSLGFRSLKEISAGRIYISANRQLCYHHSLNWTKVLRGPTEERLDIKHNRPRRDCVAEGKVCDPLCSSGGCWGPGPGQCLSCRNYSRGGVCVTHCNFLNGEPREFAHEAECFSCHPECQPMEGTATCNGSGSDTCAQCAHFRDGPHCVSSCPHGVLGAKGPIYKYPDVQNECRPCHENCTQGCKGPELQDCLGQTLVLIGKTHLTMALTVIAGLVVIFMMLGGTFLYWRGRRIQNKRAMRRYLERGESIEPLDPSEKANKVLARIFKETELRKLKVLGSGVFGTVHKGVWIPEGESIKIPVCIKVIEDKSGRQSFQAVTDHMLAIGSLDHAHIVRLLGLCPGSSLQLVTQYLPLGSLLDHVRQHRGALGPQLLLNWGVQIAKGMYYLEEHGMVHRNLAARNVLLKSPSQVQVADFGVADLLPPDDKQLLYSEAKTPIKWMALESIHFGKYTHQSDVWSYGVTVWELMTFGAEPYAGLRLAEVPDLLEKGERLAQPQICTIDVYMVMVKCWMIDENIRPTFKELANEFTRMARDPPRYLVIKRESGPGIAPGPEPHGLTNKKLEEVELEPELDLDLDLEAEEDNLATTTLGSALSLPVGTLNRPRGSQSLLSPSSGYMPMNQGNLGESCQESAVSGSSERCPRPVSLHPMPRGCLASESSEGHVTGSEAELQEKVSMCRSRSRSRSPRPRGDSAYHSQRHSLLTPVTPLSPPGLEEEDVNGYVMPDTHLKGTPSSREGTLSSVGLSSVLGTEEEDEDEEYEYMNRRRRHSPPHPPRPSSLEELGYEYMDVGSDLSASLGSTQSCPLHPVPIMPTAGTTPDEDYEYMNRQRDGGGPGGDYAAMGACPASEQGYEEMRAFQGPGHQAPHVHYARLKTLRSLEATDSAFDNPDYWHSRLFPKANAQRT
Megakaryocyte-associated tyrosine-protein kinase (Homo sapiens), sequence (P42679 whole entry): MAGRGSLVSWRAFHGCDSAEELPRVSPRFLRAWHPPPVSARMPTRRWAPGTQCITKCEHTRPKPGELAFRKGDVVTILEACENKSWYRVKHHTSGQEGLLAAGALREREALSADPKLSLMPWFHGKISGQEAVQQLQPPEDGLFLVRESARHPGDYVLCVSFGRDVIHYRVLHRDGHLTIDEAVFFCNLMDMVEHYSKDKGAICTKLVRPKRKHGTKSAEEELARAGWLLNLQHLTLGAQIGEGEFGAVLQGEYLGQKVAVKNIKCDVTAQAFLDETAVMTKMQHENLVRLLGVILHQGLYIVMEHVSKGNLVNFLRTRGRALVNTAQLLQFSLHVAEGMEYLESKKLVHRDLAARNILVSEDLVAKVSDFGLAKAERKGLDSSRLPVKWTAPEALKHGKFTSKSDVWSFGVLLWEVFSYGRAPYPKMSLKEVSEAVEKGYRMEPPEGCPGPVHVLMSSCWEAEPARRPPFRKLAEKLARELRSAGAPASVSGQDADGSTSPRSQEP
Serine/threonine-protein kinase PAK 4 (Homo sapiens), sequence (O96013 whole entry, looked up): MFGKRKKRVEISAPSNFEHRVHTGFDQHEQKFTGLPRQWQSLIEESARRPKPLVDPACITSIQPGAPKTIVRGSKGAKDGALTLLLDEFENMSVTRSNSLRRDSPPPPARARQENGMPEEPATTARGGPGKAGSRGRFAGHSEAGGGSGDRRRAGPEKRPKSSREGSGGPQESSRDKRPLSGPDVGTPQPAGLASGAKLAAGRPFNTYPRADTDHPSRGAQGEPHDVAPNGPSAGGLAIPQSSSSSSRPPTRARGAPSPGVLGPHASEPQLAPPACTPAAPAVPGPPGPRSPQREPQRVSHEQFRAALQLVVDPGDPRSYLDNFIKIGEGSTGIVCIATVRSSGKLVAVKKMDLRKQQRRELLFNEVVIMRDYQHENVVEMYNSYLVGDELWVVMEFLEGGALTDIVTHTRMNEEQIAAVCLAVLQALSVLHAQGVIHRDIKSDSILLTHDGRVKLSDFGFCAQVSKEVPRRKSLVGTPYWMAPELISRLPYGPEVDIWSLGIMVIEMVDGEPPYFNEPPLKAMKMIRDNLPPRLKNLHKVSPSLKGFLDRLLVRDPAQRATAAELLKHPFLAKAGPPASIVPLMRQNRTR
Serine/threonine-protein kinase 17A (Homo sapiens), sequence (Q9UEE5 whole entry): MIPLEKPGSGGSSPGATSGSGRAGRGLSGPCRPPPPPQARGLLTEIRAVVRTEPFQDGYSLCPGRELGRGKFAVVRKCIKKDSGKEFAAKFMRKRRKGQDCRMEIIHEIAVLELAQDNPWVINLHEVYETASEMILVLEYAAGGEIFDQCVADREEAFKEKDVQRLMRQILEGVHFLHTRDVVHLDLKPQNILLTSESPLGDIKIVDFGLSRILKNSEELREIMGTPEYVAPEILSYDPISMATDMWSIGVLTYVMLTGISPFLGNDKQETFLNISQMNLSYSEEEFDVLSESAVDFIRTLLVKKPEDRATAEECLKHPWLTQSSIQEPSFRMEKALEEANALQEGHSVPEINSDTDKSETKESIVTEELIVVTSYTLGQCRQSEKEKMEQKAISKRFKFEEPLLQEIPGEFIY
Aurora kinase B (Homo sapiens), sequence (Q96GD4 whole entry): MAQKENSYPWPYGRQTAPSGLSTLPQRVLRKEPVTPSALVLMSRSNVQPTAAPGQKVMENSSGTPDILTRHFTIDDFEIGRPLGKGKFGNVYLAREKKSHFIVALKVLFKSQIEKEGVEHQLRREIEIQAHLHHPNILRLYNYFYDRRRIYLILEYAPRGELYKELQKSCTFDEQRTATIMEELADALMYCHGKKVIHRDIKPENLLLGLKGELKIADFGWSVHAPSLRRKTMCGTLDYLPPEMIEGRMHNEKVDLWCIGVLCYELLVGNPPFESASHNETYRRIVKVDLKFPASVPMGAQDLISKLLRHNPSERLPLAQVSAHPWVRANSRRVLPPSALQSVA

O=C(N1CCS(=O)(=O)CC1)N1C[C@H](c2ccc(OC(F)(F)F)cc2)C[C@H](c2nc(C3CC3)no2)C1 [BAY-386]
residual activity [1]: 100% | residual activity [2]: 100% | residual activity [3]: 100% | residual activity [4]: 100% | residual activity [5]: 100% | residual activity [6]: 94% | residual activity [7]: 100% | residual activity [8]: 94% | residual activity [9]: 100% | residual activity [10]: 86% | residual activity [11]: 100% | residual activity [12]: 100% | inhibition [13]: 2.78% | residual activity [14]: 99% | residual activity [15]: 100% | residual activity [16]: 100% | inhibition [17]: -5.32% | residual activity [18]: 100% | inhibition [19]: -7.39% | residual activity [20]: 100% | residual activity [21]: 100% | residual activity [22]: 95% | residual activity [23]: 99% | residual activity [24]: 100% | residual activity [25]: 100% | residual activity [26]: 100% | residual activity [27]: 76% | residual activity [28]: 100% | residual activity [29]: 100% | residual activity [30]: 100% | residual activity [31]: 100% | residual activity [32]: 100% | residual activity [33]: 73% | inhibition [34]: -2.64% | residual activity [35]: 100% | residual activity [36]: 93% | residual activity [37]: 100% | residual activity [38]: 91% | % Inhibition of Control Agonist Response (Mean n=2) [39]: 41.9% | % of Control Agonist Response (Mean n=2) [39]: 0.7%

Cc1noc([C@H]2C[C@@H](c3ccc(C(F)(F)F)cc3)CN(C(=O)N3CCS(=O)(=O)C3)C2)n1 [BAY-448]
residual activity [1]: 100% | residual activity [2]: 100% | residual activity [3]: 100% | residual activity [4]: 100% | residual activity [5]: 100% | residual activity [6]: 100% | residual activity [7]: 100% | residual activity [8]: 85% | residual activity [9]: 100% | residual activity [10]: 87% | residual activity [11]: 68% | residual activity [12]: 100% | inhibition [13]: 27.7% | residual activity [14]: 76% | residual activity [15]: 100% | residual activity [16]: 100% | inhibition [17]: 11.5% | residual activity [18]: 100% | inhibition [19]: 3.61% | residual activity [20]: 100% | residual activity [21]: 100% | residual activity [22]: 100% | residual activity [23]: 100% | residual activity [24]: 100% | residual activity [25]: 87% | residual activity [26]: 95% | residual activity [27]: 98% | residual activity [28]: 100% | residual activity [29]: 90% | residual activity [30]: 100% | residual activity [31]: 100% | residual activity [32]: 100% | residual activity [33]: 100% | inhibition [34]: 28.4% | residual activity [35]: 100% | residual activity [36]: 77% | residual activity [37]: 92% | residual activity [38]: 100% | % Inhibition of Control Agonist Response (Mean n=2) [39]: 29.1% | % of Control Agonist Response (Mean n=2) [39]: -4.2%
